From patent US20090275583A1, “ANTIVIRAL COMPOUNDS AND USE THEREOF” (Myriad Genetics, Incorporated, priority 2006, published 2009)

Tests used:
[1] = test system: HIV-1NL4-3; test: P4-MAGI assay; format: cell-based; settings: Human immunodeficiency virus 1, 24 h, P4 cells, 24 hour incubation, β-galactosidase expression; read-out: P4-MAGI IC50
In short: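 HeLa-derived CD4+ P4 cells carrying an LTR-driven lacZ were infected with HIV-1NL4-3 at MOI 1 with DEAE-Dextran, then compound added in increasing concentrations right after virus; infection reported as Tat-induced β-galactosidase. TC50 measured by WST-1 in mock-infected cells.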

[2] = test system: HIV-1 laboratory strain, NL4-3; test: MT-4 cytoprotection assay; format: cell-based; settings: Human immunodeficiency virus 1, NL43, MT4, 96 h; MT-4 cells, four days incubation, WST-1 readout; read-out: MT4 EC50
In short: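 MT-4 cells mock- or batch-infected with NL4-3 (MOI 0.0005) for 2 h, washed, then cultured 4 days with increasing compound concentrations. Viability read by WST-1 tetrazolium reduction: cytoprotection in infected cells, toxicity in mock-infected cells.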

Row | SMILES | IC50 [1] [nM] | EC50 [2] [nM]
1 | C=C(C)[C@@H]1CC[C@]2(C(=O)NCCc3cccc(C(=O)NCc4ccc(C(=O)N[C@H](CC(=O)OC)C(=O)OC)cn4)c3)CC[C@]3(C)C(CCC4[C@@]5(C)CC[C@H](O)C(C)(C)C5CC[C@]43C)C12 (stereo partly drawn) [Example 221] | 9 | 35
2 | C=C(C)[C@@H]1CC[C@]2(C(=O)NCCc3cccc(C(=O)NCc4ccc(C(=O)N[C@H](CC(=O)O)C(=O)O)cn4)c3)CC[C@]3(C)C(CCC4[C@@]5(C)CC[C@H](O)C(C)(C)C5CC[C@]43C)C12 (stereo partly drawn) [Example 222] | 65.7 | 727
3 | C=C(C)[C@@H]1CC[C@]2(C(=O)NCCc3cccc(C(=O)NCc4ccc(C(=O)N[C@H](CCC(=O)OC)C(=O)OC)cn4)c3)CC[C@]3(C)C(CCC4[C@@]5(C)CC[C@H](O)C(C)(C)C5CC[C@]43C)C12 (stereo partly drawn) [Example 223] | 21.7 | 21
4 | C=C(C)[C@@H]1CC[C@]2(C(=O)NCCc3cccc(C(=O)NCc4ccc(C(=O)N[C@H](CCC(=O)O)C(=O)O)cn4)c3)CC[C@]3(C)C(CCC4[C@@]5(C)CC[C@H](O)C(C)(C)C5CC[C@]43C)C12 (stereo partly drawn) [Example 224] | 35.5 | 258
5 | C=C(C)[C@@H]1CC[C@]2(C(=O)NCCc3cccc(C(=O)NCc4ccc(C(=O)NC(C(=O)O)C(N)C(=O)O)cn4)c3)CC[C@]3(C)C(CCC4[C@@]5(C)CC[C@H](O)C(C)(C)C5CC[C@]43C)C12 (stereo partly drawn) [Example 225] | 38.5 | 53
6 | C=C(C)[C@@H]1CC[C@]2(C(=O)NCCc3cccc(C(=O)NCc4ccc(C(=O)N[C@H](C(=O)O)C(C)C)cn4)c3)CC[C@]3(C)C(CCC4[C@@]5(C)CC[C@H](O)C(C)(C)C5CC[C@]43C)C12 (stereo partly drawn) [Example 226] | 11.8 | 102
7 | C=C(C)[C@@H]1CC[C@]2(C(=O)NCCc3cccc(C(=O)NCc4ncccc4C(=O)OC)c3)CC[C@]3(C)C(CCC4[C@@]5(C)CC[C@H](O)C(C)(C)C5CC[C@]43C)C12 (stereo partly drawn) [Example 227] | 67.5 | 761
8 | C=C(C)[C@@H]1CC[C@]2(C(=O)NCCc3cccc(C(=O)NCc4cccnc4C(=O)OC)c3)CC[C@]3(C)C(CCC4[C@@]5(C)CC[C@H](O)C(C)(C)C5CC[C@]43C)C12 (stereo partly drawn) [Example 229] | 7 | 44
9 | C=C(C)[C@@H]1CC[C@]2(C(=O)NCCc3cccc(C(=O)NCc4cccnc4C(=O)O)c3)CC[C@]3(C)C(CCC4[C@@]5(C)CC[C@H](O)C(C)(C)C5CC[C@]43C)C12 (stereo partly drawn) [Example 230] | 56 | 300
10 | C=C(C)[C@@H]1CC[C@]2(C(=O)NCCc3cccc(C(=O)NCc4ccc(OCCCn5ccnc5)cc4)c3)CC[C@]3(C)C(CCC4[C@@]5(C)CC[C@H](O)C(C)(C)C5CC[C@]43C)C12 (stereo partly drawn) [Example 231] | 14.2 | 18.5
11 | C=C(C)[C@@H]1CC[C@]2(C(=O)NCCc3cccc(C(=O)NCc4ccc(OCCCO)cc4)c3)CC[C@]3(C)C(CCC4[C@@]5(C)CC[C@H](O)C(C)(C)C5CC[C@]43C)C12 (stereo partly drawn) [Example 232] | 38.5 | 71.5
12 | C=C(C)[C@@H]1CC[C@]2(C(=O)NCCc3cccc(C(=O)NCc4ccc(OCCCn5cncc5C(=O)OC)cc4)c3)CC[C@]3(C)C(CCC4[C@@]5(C)CC[C@H](O)C(C)(C)C5CC[C@]43C)C12 (stereo partly drawn) [Example 234] | 18.5 | 27
13 | C=C(C)[C@@H]1CC[C@]2(C(=O)NCCc3cccc(C(=O)NCc4ccc(OCCCn5cnc(C(=O)OC)c5)cc4)c3)CC[C@]3(C)C(CCC4[C@@]5(C)CC[C@H](O)C(C)(C)C5CC[C@]43C)C12 (stereo partly drawn) [Example 235] | 18 | 66.5
14 | C=C(C)[C@@H]1CC[C@]2(C(=O)NCCc3cccc(C(=O)NCc4ccc(OCCCN5CCN(S(=O)(=O)CC)CC5)cc4)c3)CC[C@]3(C)C(CCC4[C@@]5(C)CC[C@H](O)C(C)(C)C5CC[C@]43C)C12 (stereo partly drawn) [Example 236] | 19.8 | 30
15 | C=C(C)[C@@H]1CC[C@]2(C(=O)NCCc3cccc(C(=O)NCc4ccc(O)c(C(=O)OC)c4)c3)CC[C@]3(C)C(CCC4[C@@]5(C)CC[C@H](O)C(C)(C)C5CC[C@]43C)C12 (stereo partly drawn) [Example 239] | 32.1 | 105
16 | C=C(C)[C@@H]1CC[C@]2(C(=O)NCCc3cccc(C(=O)NCc4ccc(O)c(C(=O)O)c4)c3)CC[C@]3(C)C(CCC4[C@@]5(C)CC[C@H](O)C(C)(C)C5CC[C@]43C)C12 (stereo partly drawn) [Example 240] | 19 | 33
17 | C=C(C)[C@@H]1CC[C@]2(C(=O)NCCc3cccc(C(=O)NCc4ccc(OCCCN5CC(C)NC(C)C5)c(C(=O)O)c4)c3)CC[C@]3(C)C(CCC4[C@@]5(C)CC[C@H](O)C(C)(C)C5CC[C@]43C)C12 (stereo partly drawn) [Example 241] | 5 | 22.5
18 | C=C(C)[C@@H]1CC[C@]2(C(=O)NCCc3cccc(C(=O)NCc4ccc(OCCCn5ccnc5)c(C(=O)O)c4)c3)CC[C@]3(C)C(CCC4[C@@]5(C)CC[C@H](O)C(C)(C)C5CC[C@]43C)C12 (stereo partly drawn) [Example 242] | 41.3 | 91

Row | SMILES | IC50 [1] [nM] | EC50 [2] [nM]
19 | C=C(C)[C@@H]1CC[C@]2(C(=O)NCCc3cccc(C(=O)NCc4ccc(OCCCN5CCN(S(=O)(=O)CC)CC5)c(C(=O)O)c4)c3)CC[C@]3(C)C(CCC4[C@@]5(C)CC[C@H](O)C(C)(C)C5CC[C@]43C)C12 (stereo partly drawn) [Example 243] | 17.5 | 26
20 | C=C(C)[C@@H]1CC[C@]2(C(=O)NCCc3cccc(C(=O)NCc4ccc(OCCCN5CCNCC5)c(C(=O)O)c4)c3)CC[C@]3(C)C(CCC4[C@@]5(C)CC[C@H](O)C(C)(C)C5CC[C@]43C)C12 (stereo partly drawn) [Example 245] | 27.4 | 35
21 | C=C(C)[C@@H]1CC[C@]2(C(=O)NCCc3cccc(C(=O)NCc4ccc(OCCCn5cncc5C(=O)O)c(C(=O)O)c4)c3)CC[C@]3(C)C(CCC4[C@@]5(C)CC[C@H](O)C(C)(C)C5CC[C@]43C)C12 (stereo partly drawn) [Example 246] | 57.3 | 233
22 | C=C(C)[C@@H]1CC[C@]2(C(=O)NCCc3cccc(S(=O)(=O)NCc4ccc(C(=O)OC)cc4)c3)CC[C@]3(C)C(CCC4[C@@]5(C)CC[C@H](O)C(C)(C)C5CC[C@]43C)C12 (stereo partly drawn) [Example 250] | 106 | 594
23 | C=C(C)[C@@H]1CC[C@]2(C(=O)NCCc3cccc(S(=O)(=O)NCc4ccc(C(=O)O)cc4)c3)CC[C@]3(C)C(CCC4[C@@]5(C)CC[C@H](O)C(C)(C)C5CC[C@]43C)C12 (stereo partly drawn) [Example 251] | 68 | 258
24 | C=C(C)[C@@H]1CC[C@]2(C(=O)NCCc3cccc(C(=O)NCc4ccc(C#N)cn4)c3)CC[C@]3(C)C(CCC4[C@@]5(C)CC[C@H](O)C(C)(C)C5CC[C@]43C)C12 (stereo partly drawn) [Example 252] | 25 | 14
25 | C=C(C)[C@@H]1CC[C@]2(C(=O)NCCc3cccc(C(=O)NCc4ccc(-c5nn[nH]n5)cn4)c3)CC[C@]3(C)C(CCC4[C@@]5(C)CC[C@H](O)C(C)(C)C5CC[C@]43C)C12 (stereo partly drawn) [Example 253] | 10.8 | 3.5
26 | C=C(C)[C@@H]1CC[C@]2(C(=O)NCCc3cccc(-c4nnc(-c5ccc(C(=O)O)cn5)[nH]4)c3)CC[C@]3(C)C(CCC4[C@@]5(C)CC[C@H](O)C(C)(C)C5CC[C@]43C)C12 (stereo partly drawn) [Example 254] | 69 | 351
27 | C=C(C)[C@@H]1CC[C@]2(C(=O)NCCc3cccc(C(=O)NCC(O)CO)c3)CC[C@]3(C)C(CCC4[C@@]5(C)CC[C@H](O)C(C)(C)C5CC[C@]43C)C12 (stereo partly drawn) [Example 256] | 50.5 | 204
28 | C=C(C)[C@@H]1CC[C@]2(C(=O)NCCc3cccc(C(=O)NCC4COC(C(=O)O)CO4)c3)CC[C@]3(C)C(CCC4[C@@]5(C)CC[C@H](O)C(C)(C)C5CC[C@]43C)C12 (stereo partly drawn) [Example 257] | 54 | 328
29 | C=C(C)[C@@H]1CC[C@]2(C(=O)NCCc3cccc(C(=O)NCC4COCC(C(=O)O)O4)c3)CC[C@]3(C)C(CCC4[C@@]5(C)CC[C@H](O)C(C)(C)C5CC[C@]43C)C12 (stereo partly drawn) [Example 258] | 112 | 984
30 | C=C(C)[C@@H]1CC[C@]2(C(=O)NCCc3ccc(F)c(C(=O)NCc4ccc(C(=O)OC)cn4)c3)CC[C@]3(C)C(CCC4[C@@]5(C)CC[C@H](O)C(C)(C)C5CC[C@]43C)C12 (stereo partly drawn) [Example 261] | 14.5 | 8.9
31 | C=C(C)[C@@H]1CC[C@]2(C(=O)NCCc3ccc(F)c(C(=O)NCc4ccc(C(=O)O)cn4)c3)CC[C@]3(C)C(CCC4[C@@]5(C)CC[C@H](O)C(C)(C)C5CC[C@]43C)C12 (stereo partly drawn) [Example 262] | 11.5 | 7.2
32 | CC(=O)[C@@H]1CC[C@]2(C(=O)NCCc3cccc(C(=O)NCc4ccc(C(=O)O)cc4)c3)CC[C@]3(C)C(CCC4[C@@]5(C)CC[C@H](O)C(C)(C)C5CC[C@]43C)C12 (stereo partly drawn) [Example 264] | 29.5 | 161
33 | C=C(CN1CCCC1)[C@@H]1CC[C@]2(C(=O)NCCc3cccc(C(=O)NCc4ccc(C(=O)O)cn4)c3)CC[C@]3(C)C(CCC4[C@@]5(C)CC[C@H](O)C(C)(C)C5CC[C@]43C)C12 (stereo partly drawn) [Example 265] | 58 | 172
34 | C=C(COC)[C@@H]1CC[C@]2(C(=O)NCCc3cccc(C(=O)NCc4ccc(C(=O)O)cn4)c3)CC[C@]3(C)C(CCC4[C@@]5(C)CC[C@H](O)C(C)(C)C5CC[C@]43C)C12 (stereo partly drawn) [Example 266] | 8.3 | 24
35 | C=C(CSCCO)[C@@H]1CC[C@]2(C(=O)NCCc3cccc(C(=O)NCc4ccc(C(=O)O)cn4)c3)CC[C@]3(C)C(CCC4[C@@]5(C)CC[C@H](O)C(C)(C)C5CC[C@]43C)C12 (stereo partly drawn) [Example 267] | 17.3 | 46
36 | C=C(CSCCC(=O)O)[C@@H]1CC[C@]2(C(=O)NCCc3cccc(C(=O)NCc4ccc(C(=O)O)cc4)c3)CC[C@]3(C)C(CCC4[C@@]5(C)CC[C@H](O)C(C)(C)C5CC[C@]43C)C12 (stereo partly drawn) [Example 268] | 104 | 411
